Data reported in the supplement of paper PMC4862054.

What was measured:
Settings in all cases: incubation time: 72 h
BT-474 [1] = experiment: drug sensitivity score (DSS), CellTiter-Blue viability (DSS (AUC-based score)); higher = stronger viability inhibition; extreme values may be limits of the assay
Procedure, shortened: (§1)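 Each 384-well plate was normalised to two references, 0.1 % DMSO and a positive kill control. Breast cancer cell lines (20 µl suspension) had been seeded onto compound at 5 or 9 concentrations and incubated 72 h, after which viability was read by CellTiter-Blue fluorescence at 560/590 nm. The drug sensitivity score reflects the area under the fitted dose-response curve.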

BT-549 = experiment: as above
Procedure, shortened: as §1

CAL-148 [2] = experiment: as above
Procedure, shortened: as §1

CAL-51 [3] = experiment: as above
Procedure, shortened: as §1

CAL-85-1 = experiment: as above
Procedure, shortened: as §1

DU-4475 [4] = experiment: as above
Procedure, shortened: as §1

HCC1937 [5] = experiment: as above
Procedure, shortened: as §1

HDQ-P1 [6] = experiment: as above
Procedure, shortened: as §1

Hs578T [7] = experiment: as above
Procedure, shortened: as §1

MDA-MB-231 = experiment: as above
Procedure, shortened: as §1

MDA-MB-468 [8] = experiment: as above
Procedure, shortened: as §1

MFM-223 = experiment: as above
Procedure, shortened: as §1

BT-474 [9] = experiment: drug sensitivity score (DSS), CellTox Green (DSS (AUC-based score)); higher = stronger drug effect (viability inhibition or cytotoxicity); extreme values may be limits of the assay
Procedure, shortened: (§2)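 The drug sensitivity score was computed from the area under the fitted dose-response curve. Breast cancer cell lines in 20 µl suspension went into 384-well plates holding compound at 5 concentrations (10-fold steps over a 10,000-fold, compound-specific range) for 72 h of incubation. CellTox Green fluorescence (485/520 nm) was read before CellTiter-Glo luminescence, the latter after 10 min at room temperature, and each plate was normalised to 0.1 % DMSO and a positive kill control.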

CAL-120 = experiment: as above
Procedure, shortened: as §2

CAL-51 [10] = experiment: as above
Procedure, shortened: as §2

DU-4475 [11] = experiment: as above
Procedure, shortened: as §2

HCC1143 = experiment: as above
Procedure, shortened: as §2

HCC1599 = experiment: as above
Procedure, shortened: as §2

HCC1937 [12] = experiment: as above
Procedure, shortened: as §2

HDQ-P1 [13] = experiment: as above
Procedure, shortened: as §2

Hs578T [14] = experiment: as above
Procedure, shortened: as §2

MCF-10A = experiment: as above
Procedure, shortened: as §2

MDA-MB-436 = experiment: as above
Procedure, shortened: as §2

MDA-MB-453 = experiment: as above
Procedure, shortened: as §2

MDA-MB-468 [15] = experiment: as above
Procedure, shortened: as §2

CAL-148 [16] = experiment: as above
Procedure, shortened: as §2

| Compound | drug sensitivity score (BT-474 [1]) | drug sensitivity score (BT-549) | drug sensitivity score (CAL-148 [2]) | drug sensitivity score (CAL-51 [3]) | drug sensitivity score (CAL-85-1) | drug sensitivity score (DU-4475 [4]) | drug sensitivity score (HCC1937 [5]) | drug sensitivity score (HDQ-P1 [6]) | drug sensitivity score (Hs578T [7]) | drug sensitivity score (MDA-MB-231) | drug sensitivity score (MDA-MB-468 [8]) | drug sensitivity score (MFM-223) | drug sensitivity score (BT-474 [9]) | drug sensitivity score (CAL-120) | drug sensitivity score (CAL-51 [10]) | drug sensitivity score (DU-4475 [11]) | drug sensitivity score (HCC1143) | drug sensitivity score (HCC1599) | drug sensitivity score (HCC1937 [12]) | drug sensitivity score (HDQ-P1 [13]) | drug sensitivity score (Hs578T [14]) | drug sensitivity score (MCF-10A) | drug sensitivity score (MDA-MB-436) | drug sensitivity score (MDA-MB-453) | drug sensitivity score (MDA-MB-468 [15]) | drug sensitivity score (CAL-148 [16]) |
| --- | --- | --- | --- | --- | --- | --- | --- | --- | --- | --- | --- | --- | --- | --- | --- | --- | --- | --- | --- | --- | --- | --- | --- | --- | --- | --- |
| CO[C@@H]1[C@H](N(C)C(=O)c2ccccc2)C[C@H]2O[C@]1(C)n1c3ccccc3c3c4c(c5c6ccccc6n2c5c31)C(=O)NC4 [Midostaurin] | 0 | 9.72 | 0 | 19.4 | 3.45 | 15.8 | 10 | 10.9 | 14.9 | 9.28 | 9.5 | 4.68 | 0.973 | 3.96 | 29.9 | 0 | 0 | 0 | 0 | 1.96 | 11.5 | 0 | 0 | 0 | 17 | – |
| CCNC(=O)CCC/C=C\C[C@@H]1[C@@H](/C=C/[C@@H](O)CCc2ccccc2)[C@H](O)C[C@@H]1O [Bimatoprost] | 0 | 0 | 0 | 0 | 0 | 0 | 0 | 0 | 0 | 0 | 0 | 0 | 0 | 0 | 0 | 0 | 0 | 0 | 0 | – | 2.06 | 0 | 0 | 0 | – | 0 |
| C=CCN(/C=C1/C(=O)O[C@H](COC)[C@@]2(C)C1=C(O)C(=O)C1=C2[C@H](OC(C)=O)C[C@]2(C)C(=O)CC[C@@H]12)CC=C [PX-866] | 5.22 | 0 | 0 | 0 | 0 | 0 | 5.15 | 3.65 | 3.48 | 5.75 | 8.51 | 0 | – | – | – | – | – | – | – | – | – | – | – | – | – | – |
| CN[C@@H](C)C(=O)N[C@H]1CN(C(=O)CC(C)C)CC[C@H]2CC[C@@H](C(=O)NC(c3ccccc3)c3ccccc3)N2C1=O [AT-406] | – | – | – | – | – | – | – | – | – | – | – | – | 0.17 | – | 0 | 0 | 0 | 0 | 0 | 4.26 | 0 | 0 | 0 | 0 | 0 | – |
| COc1c2occc2cc2ccc(=O)oc12 [Methoxsalen] | 0 | 0 | 1.28 | 0 | 0.682 | 0.558 | 0 | 0 | 0 | 0 | 0 | 0 | – | – | – | – | – | – | – | – | – | – | – | – | – | – |
| Cc1nc(C(=O)NCC(=O)O)c(O)c2ccc(Oc3ccccc3)cc12 [FG-4592] | – | – | – | – | – | – | – | – | – | – | – | – | 0 | 0 | 0 | 0 | 0 | 0 | 0 | 0 | 0 | 0 | 0 | 0 | 0 | 0 |
| CCn1c(C(=O)N(C2CC2)C2CC2)cc2c3c(ncn3C)c(Nc3cc(C)n(C)n3)nc21 | – | – | – | – | – | – | – | – | – | – | – | – | 0 | 0 | 0 | 0 | 1.62 | 0 | 3.5 | 0 | 0 | 0 | 0 | 0 | 1.81 | 0 |
| O=[N+]([O-])c1ccc2c(c1)S(=O)(=O)C=C2 [Stattic] | – | – | – | – | – | – | – | – | – | – | – | – | 15.9 | 2.06 | 16.9 | 0 | 6.3 | 0 | 25 | 2.09 | 18.1 | 19.5 | 6.1 | 2.97 | 19.8 | 9.88 |
| CC(C)(C)c1nc(-c2cccc(NS(=O)(=O)c3c(F)cccc3F)c2F)c(-c2ccnc(N)n2)s1 [Dabrafenib] | – | – | – | – | – | – | – | – | – | – | – | – | 0 | 0 | 0 | 3.29 | 0 | 0 | 1.11 | 1.28 | 18.1 | 0 | 0 | 0 | 0 | 1.13 |
| Cn1cc(C2=C(c3cn(C4CCN(Cc5ccccn5)CC4)c4ccccc34)C(=O)NC2=O)c2ccccc21 [Enzastaurin] | 2.68 | 6.55 | 5.06 | 0 | 0 | 0 | 5.39 | 1.6 | 9.93 | 0 | 0 | 6.5 | 0 | 0 | 0 | 0 | 0 | 0 | 0 | 0 | – | 0 | 0 | 0 | 0 | 0 |
